These results are taken from patent EP0705258B1, “AZOLYL-CYCLIC AMINE DERIVATIVES WITH IMMUNOMODULATORY ACTIVITY” (Knoll AG, priority 1993, dated 1995).

In test [1] the test system is Zymosan Stimulated Macrophages. Briefly: Inhibition of Arachidonic Acid Release from Zymosan Stimulated Macrophages (Test D). The conditions noted are these: Mus musculus, Macrophage, tested at 100, 50, 20, 10, 5 and 1 µM. In kind it is cell-based, MF1 mice. How it is done:
Female MF1 mice (weighing 20 to 25 g) were killed using a rising concentration of CO2. The mice were laid on their backs and the abdomens wiped with 70% alcohol. The skin was pulled back, exposing the peritoneal wall. Medium A (5 ml) (see below) was injected into the peritoneal cavity of each mouse followed by approximately 1 ml of air using a 20 ml syringe and a 21G x 40 mm needle in order to form a suspension of macrophage cells. The medium and cells were then removed using a 19G x 40 mm needle. The resulting suspension was returned to a sterile beaker kept on ice. The extracts from all the mice were pooled and this pooled cell suspension was counted using a Coulter counter and adjusted to a final cell count of 1 - 1.3 x 10^6 cells/ml prior to labelling with [^3H]-arachidonic acid. Typically five mice provided sufficient cells for each multiwell plate. Sufficient [^3H]arachidonic acid in ethanol to give a final concentration of 1.6 µCi/ml (equivalent to 40 µCi/plate) was blown to dryness under nitrogen. The arachidonic acid was then resuspended in 1 or 2 ml of the cell suspension which was then mixed with the remainder of the cell suspension in a centrifuge bottle. The labelled cell suspension was then plated out into sterile plastic 96 flat-bottomed well plates (250 µl per well) and incubated overnight at 37°C in a moist atmosphere of 5% CO2, 95% air. The following day, non-adherent cells were removed by washing 3 times with sterile phosphate buffered saline (PBS). The adherent peritoneal macrophages were then cultured for a further 24 hours in the presence or absence of drugs, in medium B (see below) at 37° in a 5% CO2 atmosphere in order to measure the effects of drugs on the spontaneous release of arachidonic acid in the absence of stimulus. After this incubation, supernatants were removed to give media 1 and stored in sealed multi-well plates at 4°C prior to scintillation counting. Drugs which potentiated spontaneous release of arachidonic acid (125% of controls) were deemed to be toxic at the concentration at which this phenomenon occurred. The supernatants were replaced by fresh medium C containing fresh drug and a stimulus. Three drugs were tested at six concentrations (100, 50, 20, 10, 5 and 1 µM) in replicates of four on each plate. The other wells contained controls consisting of a positive control (e.g. dexamethasone), medium (B) only and medium C only. Incubation was then continued for a further 5 hours, whereupon the supernatants were collected to give media 2 and the adherent cells washed with PBS. The cells were then lysed with 100 µl of 0.1% TRITON® X100 in a 0.1% solution of bovine serum albumin in 0.9% saline and mechanically disrupted to give cell lysates. These supernatants (media 2) and cell lysates (Cells) were also stored in sealed multi-well plates at 4°C prior to scintillation counting. 200 µl aliquots of media, or 100 µl aliquots of cells were counted using 2 ml of OPTIPHASE "HIGH SAFE" (Trademark of LKB) as scintillant. […] The value for the arachidonic acid release in the absence of stimulus (spontaneous, cpm of media 2) from cells which had been exposed to neither stimulus nor drug was subtracted from all equivalent values (cpm media 2, stimulated with or without drug) to give the net stimulated release. The percentage inhibition of arachidonic acid release caused by a drug may then be calculated using the following equation. % Inhibition = 100 -(net stimulated release in presence of drug x 100)/(net stimulated release in absence of drug) [formula] […] The zymosan stimulant was prepared as follows:- zymosan (200mg) (supplied by Sigma) was added to PBS (20ml). The mixture was boiled for 30 minutes and the volume restored to 20ml with water. The zymosan was harvested by centrifugation at 500Xg for 5 minutes, washed twice by resuspension in PBS (10ml) and centrifugation. After the final separation, the zymosan was resuspended in 20ml PBS and stored as lml aliquots at -20°C. […]

The subject of test [2] is tumour necrosis factor-α (TNF-α). The test can be described thus: Mouse Tumour Necrosis Factor Test (Test B), mouse endotoxin shock model, serum TNF-α by ELISA. In kind it is in vivo, BALB/c mice. The conditions noted are these: Mus musculus; minimum effective oral dose giving significant reduction in serum TNF-α of ≥35%; dosed 2 h before LPS i.p.; ≤ = active at dose given but not tested at lower doses; read-out: MTNF:MED. An excerpt: Preferred compounds of the present invention are active in an in-vivo test which determines the ability of the compounds to inhibit the release of tumour necrosis factor-α (TNF-α) in a mouse endotoxin shock model (Test B). This model is similar to that described by Zuckerman and Bendele (1989), Infection and Immunity 57 (10): p3009-3013.
Each compound of formula I was combined with a carrier of a solution of 1.5% v/v sorbitan esters under the trade name Tween 80 and 0.25% v/v cellosize in sterile water (100 µl) and was administered orally to a group of four BALB/c mice. The concentration of compound was such as to provide dosages selected from 100, 30, 10, 3, 1, 0.1 and 0.03 mg/kg. Two hours after such oral administration, lipopolysaccharide (LPS) (E. coli 0127:B8) (100 µg) in sterile water (0.2 ml) was administered intraperitoneally to the test mice.
A control group of eight BALB/c mice was treated in a similar manner as the test group except that no test compound was included with the carrier.
One hour after LPS administration the mice were killed and blood was collected by cardiac puncture. The blood was incubated at 20°C for 2 hours and the serum was separated from the clotted blood following centrifugation. Serum tumour necrosis factor-α (TNF-α) levels were assayed by an enzyme-linked immunosorbent assay (ELISA) and the concentration of TNF-α in each of the drug-treated groups was compared with the control group by one-way analysis of variance followed by a multiple t-test.
The ELISA was carried out by coating a 96-well vinyl assay plate (Costar) overnight at 4°C with 50 µl per well of 2 µg/ml hamster anti-mouse TNF monoclonal antibody in 0.1M sodium hydrogen carbonate buffer at pH 8.2. After washing the plate with phosphate buffered saline (PBS) containing 0.05% v/v sorbitan esters under the trade name Tween 20 (wash buffer), a blocking/dilution buffer (10% sheep serum in PBS containing 0.1% v/v sorbitan esters under the trade name Tween 20 (200 µl)) was aliquoted to each well and incubated at 37°C for 0.5 hours. After aspirating the blocking buffer, the serum samples and pure TNF (as a standard) diluted in blocking/dilution buffer, were added to the wells and incubated at 37°C for 2 hours. After washing with the wash buffer, a polyclonal rabbit anti-mouse TNF-α antibody in blocking/dilution buffer (100 µl of a 1 in 10,000 dilution) was added and incubated for a further 1.5 hours at 37°C. After further washes, anti-rabbit IgG peroxidase conjugate (100 µl of a 1 in 4000 dilution) was added and incubated at 37°C for 0.5 hours. After further washing, the substrate solution (100 µl per well of 0.1 mg/ml 3,3', 5,5'-tetramethylbenzidine dihydrochloride in 0.1M phosphate citrate buffer, pH 5.0, to which 2 µl of 30% hydrogen peroxide per 10 ml was added just before use) was added and the colour allowed to develop. The reaction was stopped by the addition of 1M sulphuric acid (25 µl) and the optical density read in a multichannel spectrophotometer at 450 nm. The mean TNF-α concentration was determined by comparison with the standard curve and the mean TNF-α concentration for each group compared with that produced by the control group. Drug treatments which cause a statistically significant reduction in TNF-α concentration of ≥35% at a single dose at 100 mg/kg or less were considered active.
Background: An ELISA detects its analyte on a solid surface through an enzyme-linked reagent.

Test [3] has as its system lymphocyte proliferation (BALB/c responder and mitomycin C treated C57BL/6 stimulator spleen cells). The test can be described thus: Mixed Lymphocyte Reaction (Test A), one-way MLR, tritiated thymidine incorporation. Format: cell-based, mice. The conditions noted are these: Mus musculus; concentration causing 50% inhibition of lymphocyte proliferation, by linear interpolation; ≤ = active at this concentration but not tested at lower doses. As for the experimental part: A mixed lymphocyte reaction (MLR) occurs when lymphocytes from two genetically dissimilar individuals, or inbred strains of mice are cultured together. An MLR results in the activation and proliferation of lymphocytes, which is measured by the incorporation of radiolabelled thymidine into the cellular DNA synthesised during cell division. A 'one-way' MLR is used to determine the immunosuppressive activity of test compounds in vitro. In this reaction one population of spleen cells serves as the stimulator cells and is treated with mitomycin C to prevent cell division. Spleen cells from a second allogeneic population (responder cells) are untreated and when mixed with the stimulator cells are able to undergo division which is measured. The degree of proliferation is measured in the presence and absence of test compound to assess the immunosuppressive activity of the compound.
The techniques for carrying out lymphocyte proliferation assays including MLRs are well known, eg Bradley, pages 156-166, in Mishell and Shiigi, Eds. Selected Methods in Cellular Immunology (Freeman, San Francisco, 1980); and Battisto et al, methods in Enzymology 1987; 150: 83-91. Various slight modifications of these techniques are in use and that used herein is described in Gibb, Webber and Bowen, J Immunological Methods 1985; 81: 107-113.
Cell suspensions obtained from the spleens of female BALB/c and C57BL/6 strain mice of between 6 and 9 weeks of age were used as sources of responder and stimulator cells respectively. The mice were killed using a rising concentration of CO2 and the spleens removed aseptically and teased using a scalpel and forceps to produce a single cell suspension in Hanks balanced salt solution (HBSS). The suspensions were filtered through cell strainers (Falcon), sedimented by centrifugation and resuspended in Tris-buffered ammonium chloride pH 7.2 (medium D) to lyse the erythrocytes. The cells were sedimented again and washed twice in HBSS before resuspending in complete RPMI 1640 tissue culture medium (medium E). The C57BL/6 cells were resuspended to 9 mls per spleen and a solution of mitomycin C at 400 µg/ml in medium E added to give a final concentration of 40 µg/ml. After incubation of the C57BL/6 cells at 37°C for 30 minutes in an atmosphere of 5% CO2 and 95% air, the cells were sedimented and washed 3 times in medium E. Both cell suspensions were diluted in medium E to 5 x 10^6 cells/ml. 100µl of each of the responder and stimulator cell suspensions were aliquoted into the wells of 96 well flat bottom microtitre plates containing 50 µl of test compound at an appropriate dilution (initially 50 µM diluted in medium E from a stock solution at 100 mM in dimethyl sulphoxide) giving a final test compound concentration of 10 µM (final dilution). Compounds active at this concentration were tested at further final dilution of 1 µM, 0.1 µM and 0.01 µM and 0.001 µM to determine the concentration of test compound which causes 50% inhibition of the immune response (IC50). After four days of culture at 37°C in a humidified atmosphere of 5% CO2 and 95% air, 1 µCi of tritiated thymidine in 20 µl of medium E was added to each well and the plates incubated for a further 24 hours. Cells were then harvested onto Inotech G7 glass fibre filter mats using an Inotech cell harvester. The filters were transferred to vials to which 2 ml of Packard Emulsifier-Safe scintillation fluid was added and the radioactivity from the incorporated thymidine was counted in a Packard liquid scintillation counter. The counts per minute (CPM) reflect the degree of lymphocyte proliferation. The data were analysed to determine the percentage inhibition of lymphocyte proliferation by the test compound. […]

Counter-ions that a name gives are not always drawn.

`O=C(CCCN1CCC(CCn2ccnc2)CC1)c1ccccc1` [Example 88, 4-[2-(Imidazol-1-yl)ethyl]-1-(4-oxo-4-phenylbutyl)piperidine]: the IC50 (usually the point on the concentration scale where inhibition reaches its midpoint) in test [1] was determined as 52 µM. Further, the minimal effective dose in test [2] was ≤ 30 mg/kg.
`c1ccc(CCCC2CCN(CCn3ccnc3)CC2)cc1` [Example 96, 1-[2-(imidazol-1-yl)ethyl]-4-(3-phenylpropyl)piperidine, dihydrochloride monohydrate]: the IC50 in test [1] is 34 µM; in test [3], 0.01 µM.
For the compound `c1ccc(CCCN2CCCC(CCn3ccnc3)C2)cc1` (stereo not drawn) [Example 99, 3-[2-(Imidazol-l-yl)ethyl]-1-(3-phenylpropyl)piperidine], the IC50 in test [1] worked out at 58 µM. Further, in test [2], the minimal effective dose was 100 mg/kg.
The matching figures for `c1ccc(CCCN2CCCCC2CCn2ccnc2)cc1` (stereo not drawn) [Example 100, 2-[2-(Imidazol-1-yl)ethyl]-1-(3-phenylpropyl)piperidine]: 27 µM and 100 mg/kg.
Turning to `c1ccc(CCCN2CCCC(Cn3ccnc3)C2)cc1` (stereo not drawn) [Example 101, 3-Imidazol-1-ylmethyl-1-(3-phenylpropyl)piperidine], the half-maximal inhibitory concentration (IC50) in test [1] is 18 µM. Besides, the minimal effective dose in test [2] is 100 mg/kg.
Turning to `CC(C)c1nccn1CCC1CCN(CCCc2ccccc2)CC1` [Example 106, 4-[2-(2-Isopropylimidazol-1-yl)ethyl]-1-(3-phenylpropyl)piperidine], the 50% inhibitory concentration (IC50) turned out to be 22 µM in test [1] and 0.5 µM in test [3].
As for `CCc1nccn1CCC1CCN(CCCc2ccccc2)CC1` [Example 107, 4-[2-(2-Ethylimidazol-1-yl)ethyl]-1-(3-phenylpropyl)piperidine], the IC50 in test [1] was 22 µM; in test [3], ≤ 0.01 µM.
As for `CCCc1nccn1CCC1CCN(CCCc2ccccc2)CC1` [Example 110, 1-(3-Phenylpropyl)-4-[2-(2-propylimidazol-1-yl)ethyl]piperidine], the figures for the IC50 in test [1] and in test [3] were 20 µM and 0.2 µM, respectively.
Regarding `c1ccc(CCCN2CCC(CCn3nccn3)CC2)cc1` [Example 120, 1-(3-Phenylpropyl)-4-[2-(2H-1,2,3-triazol-2-yl)ethyl]piperidine], the IC50 in test [1] was 100 µM; in test [3] it was 4.2 µM.
